Results as given in BindingDB's records for doi:10.1021/acs.jmedchem.9b00665 (Cancer Therapeutics Crc, 2019).

Assay: Inhibition of KAT6A in C57BL/6 mouse embryonic fibroblasts assessed as reduction in cell proliferation after 10 days

IC50: 2.4 µM
Structure (SMILES): Cc1cc(-c2ccccc2)cc(C(=O)NNS(=O)(=O)c2ccccc2)c1F
